Laboratory results published in ChEMBL document CHEMBL1201862, “PubChem BioAssay data set” (2004).
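All cell lines were grown in 96-well plates and treated with compound for 48 hours. GI50 marks 50% less growth.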 The source made the active and inactive calls. Rule as the data show it: active = GI50 up to about 1.1 µM and inactive = higher.

Columns and labels:
Test in all cases: inhibition of tumour cell growth, NCI panel, 48 h
A549 = tested on: A549
K562 = tested on: K562
SK-MEL-5 = tested on: SK-MEL-5
TK-10 = tested on: TK-10
MDA-MB-231 = tested on: MDA-MB-231
OVCAR-8 = tested on: OVCAR-8
OVCAR-3 = tested on: OVCAR-3
HL-60 = tested on: HL-60
SF-295 = tested on: SF-295
UACC-257 = tested on: UACC-257
DU-145 = tested on: DU-145
SNB-75 = tested on: SNB-75
HOP-92 = tested on: HOP-92
ACHN = tested on: ACHN
SK-MEL-2 = tested on: SK-MEL-2
CCRF-CEM = tested on: CCRF-CEM
UACC-62 = tested on: UACC-62
HCC 2998 = tested on: HCC 2998
SF-539 = tested on: SF-539
SK-OV-3 = tested on: SK-OV-3

SMILES	GI50 (A549)	GI50 (K562)	GI50 (SK-MEL-5)	GI50 (TK-10)	GI50 (MDA-MB-231)	GI50 (OVCAR-8)	GI50 (OVCAR-3)	GI50 (HL-60)	GI50 (SF-295)	GI50 (UACC-257)	GI50 (DU-145)	GI50 (SNB-75)	GI50 (HOP-92)	GI50 (ACHN)	GI50 (SK-MEL-2)	GI50 (CCRF-CEM)	GI50 (UACC-62)	GI50 (HCC 2998)	GI50 (SF-539)	GI50 (SK-OV-3)
CCOC(=O)c1c2ccccc2n2c(=O)n(-c3ccccc3)nnc12	63.4 µM (inactive)	16.6 µM (inactive)	15.7 µM (inactive)	> 100 µM (inactive)	> 100 µM (inactive)	> 100 µM (inactive)	17.3 µM (inactive)	23.8 µM (inactive)	3.25 µM (inactive)	> 33.3 µM (inactive)	> 100 µM (inactive)	27.2 µM (inactive)	> 100 µM (inactive)	> 27 µM (inactive)	> 25.8 µM (inactive)	1.4 µM (inactive)	10.4 µM (inactive)	47.1 µM (inactive)	> 96.4 µM (inactive)	–
Cn1ccc(C(=O)NCCN(CCNC(=O)c2ccn(C)c(=O)c2O)CCNC(=O)c2cccc(=O)n2O)c(O)c1=O	> 100 µM (inactive)	> 100 µM (inactive)	> 100 µM (inactive)	–	> 100 µM (inactive)	> 100 µM (inactive)	> 100 µM (inactive)	> 100 µM (inactive)	> 100 µM (inactive)	> 100 µM (inactive)	> 100 µM (inactive)	> 100 µM (inactive)	> 100 µM (inactive)	> 100 µM (inactive)	> 100 µM (inactive)	> 100 µM (inactive)	> 100 µM (inactive)	> 100 µM (inactive)	> 100 µM (inactive)	> 100 µM (inactive)
COc1cc2cc(C(=O)N3CC(CCl)c4c3cc([N+](C)(C)Cc3ccc([N+](=O)[O-])n3C)c3ccccc43)[nH]c2c(OC)c1OC (configuration not stated)	0.074 µM (active)	–	1.32 µM (inactive)	2.67 µM (inactive)	2.42 µM (inactive)	1.38 µM (inactive)	4.06 µM (inactive)	1.15 µM (inactive)	1.31 µM (inactive)	2.06 µM (inactive)	0.935 µM (active)	2.35 µM (inactive)	0.619 µM (active)	0.381 µM (active)	0.374 µM (active)	1.77 µM (inactive)	1.12 µM (inactive)	0.3 µM (active)	2.02 µM (inactive)	3.81 µM (inactive)
CC(C)=CCc1c(OC(=O)c2c(C)cc(O)cc2O)cc(CO)c(CO)c1O	6.43 µM (inactive)	7.62 µM (inactive)	14.8 µM (inactive)	26.3 µM (inactive)	15.5 µM (inactive)	25 µM (inactive)	–	4.5 µM (inactive)	17.2 µM (inactive)	29.9 µM (inactive)	25.1 µM (inactive)	12.6 µM (inactive)	17.7 µM (inactive)	14.4 µM (inactive)	21.3 µM (inactive)	> 10 µM (inactive)	15.2 µM (inactive)	16.4 µM (inactive)	18.6 µM (inactive)	16.2 µM (inactive)
CCOC(=O)C1C(=O)CC(C)(O)C(C(=O)OCC)C1c1ccc(OC)cc1 (configuration not stated)	> 100 µM (inactive)	> 100 µM (inactive)	> 100 µM (inactive)	> 100 µM (inactive)	> 100 µM (inactive)	> 100 µM (inactive)	> 100 µM (inactive)	> 100 µM (inactive)	> 100 µM (inactive)	> 100 µM (inactive)	> 100 µM (inactive)	> 100 µM (inactive)	> 100 µM (inactive)	> 100 µM (inactive)	> 100 µM (inactive)	> 100 µM (inactive)	> 100 µM (inactive)	> 100 µM (inactive)	> 100 µM (inactive)	–
CC1=CC(=O)/C(=C/Nc2nc(-c3cccc([N+](=O)[O-])c3)cs2)C(=O)O1	> 100 µM (inactive)	–	54.2 µM (inactive)	1.93 µM (inactive)	57.4 µM (inactive)	> 100 µM (inactive)	> 100 µM (inactive)	13.6 µM (inactive)	> 100 µM (inactive)	> 100 µM (inactive)	> 100 µM (inactive)	35.9 µM (inactive)	> 100 µM (inactive)	46.2 µM (inactive)	> 100 µM (inactive)	–	32.5 µM (inactive)	31.9 µM (inactive)	69 µM (inactive)	> 100 µM (inactive)
O=C(O)C1CCCN(CCc2c[nH]c3ccccc23)C1 (configuration not stated)	> 100 µM (inactive)	> 100 µM (inactive)	–	> 100 µM (inactive)	> 100 µM (inactive)	> 100 µM (inactive)	> 100 µM (inactive)	> 100 µM (inactive)	> 100 µM (inactive)	> 100 µM (inactive)	> 100 µM (inactive)	> 100 µM (inactive)	> 100 µM (inactive)	> 100 µM (inactive)	> 100 µM (inactive)	> 100 µM (inactive)	> 100 µM (inactive)	> 100 µM (inactive)	> 100 µM (inactive)	> 100 µM (inactive)
